How the values were obtained:
human RXRα [1] = target: T1, human RXRα (Homo sapiens, UniProt P19793); conditions: 10^−7 M, 24 h, Caco-2 cells, versus ethanol control (Figure 4)
T1 sequence (P19793 1-462): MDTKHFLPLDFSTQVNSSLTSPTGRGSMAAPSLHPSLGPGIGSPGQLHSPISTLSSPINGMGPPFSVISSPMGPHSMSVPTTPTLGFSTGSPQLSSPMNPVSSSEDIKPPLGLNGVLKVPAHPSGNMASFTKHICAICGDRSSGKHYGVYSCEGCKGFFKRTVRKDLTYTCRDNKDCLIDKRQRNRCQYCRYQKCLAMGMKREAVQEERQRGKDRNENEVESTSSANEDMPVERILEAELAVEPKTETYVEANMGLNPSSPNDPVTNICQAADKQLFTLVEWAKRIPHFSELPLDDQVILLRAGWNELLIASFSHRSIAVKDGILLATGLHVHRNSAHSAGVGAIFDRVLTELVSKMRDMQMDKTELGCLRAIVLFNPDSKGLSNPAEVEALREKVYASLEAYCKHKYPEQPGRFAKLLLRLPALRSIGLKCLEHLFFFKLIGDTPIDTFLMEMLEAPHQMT

human RARα = target: T2, human RARα (Homo sapiens, UniProt P10276); conditions: RARE-luciferase reporter, Caco-2 cells
T2 sequence (P10276 1-462): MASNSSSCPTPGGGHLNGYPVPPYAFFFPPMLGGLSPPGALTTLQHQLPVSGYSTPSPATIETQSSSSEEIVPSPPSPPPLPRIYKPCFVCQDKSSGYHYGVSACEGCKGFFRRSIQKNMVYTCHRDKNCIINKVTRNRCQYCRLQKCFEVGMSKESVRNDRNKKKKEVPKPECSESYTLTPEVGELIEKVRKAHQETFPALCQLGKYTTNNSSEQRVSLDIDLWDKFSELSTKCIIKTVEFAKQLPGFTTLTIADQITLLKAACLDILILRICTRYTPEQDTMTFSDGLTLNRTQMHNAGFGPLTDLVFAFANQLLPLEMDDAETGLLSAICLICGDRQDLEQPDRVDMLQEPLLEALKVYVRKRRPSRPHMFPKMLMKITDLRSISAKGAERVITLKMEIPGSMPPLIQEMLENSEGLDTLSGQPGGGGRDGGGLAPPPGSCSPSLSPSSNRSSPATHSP
T2 sequence (P19793 1-462 partner): T1 sequence (P19793 1-462)

RXR [2] = target: T3, RXR (Homo sapiens, UniProt P19793); test: cell-based
T3 sequence (P19793 227-462 limits assumed): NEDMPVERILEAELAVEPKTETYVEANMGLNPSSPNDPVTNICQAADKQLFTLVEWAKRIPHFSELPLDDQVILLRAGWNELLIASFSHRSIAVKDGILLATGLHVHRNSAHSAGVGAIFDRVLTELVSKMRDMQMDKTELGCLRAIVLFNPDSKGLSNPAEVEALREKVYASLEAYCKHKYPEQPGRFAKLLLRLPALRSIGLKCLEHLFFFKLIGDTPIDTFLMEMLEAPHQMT

human RXRα [3] = target: T1, human RXRα; test: biochemical
RXR [4] = target: T3, RXR; conditions: for RXR binding and homodimerization relative to 1 (luciferase output): 10^−7 M, 24 h, Caco-2 cells, compound 1 set to 1.0 (Figure 3)
[5] = test system: Human T-cell lymphoma (CTCL) cells (Hut78); conditions: 24 h, versus ethanol vehicle control (Figure 5)
human RXRα [6] = target: T1, human RXRα; conditions: based on Ki values of Table 1

RAR agonist activity compared with 1 (human RARα) | EC50 (RXR [2]) [nM] | Ki (human RXRα [3]) [nM] | apparent RXR binding affinity greater than 1 (human RXRα [6]) [%] | increase in efficacy based on EC50 values (RXR [4]; versus 1, Table 1) [%] | Compound | RXR-mediated transcriptional activity (RXRE-luciferase) (human RXRα [1]) | RXR binding and homodimerization relative to 1 (luciferase output) (RXR [4]) | apoptotic activity (caspases 3 and 7) [5]
slightly greater RAR agonist activity | 200 | 81 |  |  | C=C(c1ccc(C(=O)O)c([N+](=O)[O-])c1)c1cc2c(cc1C)C(C)(C)CCC2(C)C [Compound 16, 4-(1-(1,2,3,4-Tetrahydro-1,1,4,4,6-pentamethylnaphthalen-7-yl)vinyl)-2-nitrobenzoic Acid] | transcriptional activity significantly above the ethanol control levels |  | 
significantly lower RAR binding | 420 | 161 |  |  | C=C(c1cc2c(cc1C)C(C)(C)CCC2(C)C)c1ccc(C(=O)O)cc1F [Compound 18, 3-Fluoro-4-(1-(1,2,3,4-tetrahydro-1,1,4,4,6-pentamethylnaphthalen-7-yl)vinyl)benzoic acid] | transcriptional activity significantly above the ethanol control levels | about half as well as 1 | 
approximately equal to 1 | 43 | 12 | 75 | 20 | C=C(c1ccc(C(=O)O)c(F)c1)c1cc2c(cc1C)C(C)(C)CCC2(C)C [Compound 20, 2-fluoro-4-(1-(1,2,3,4-tetrahydro-1,1,4,4,6-pentamethylnaphthalen-7-yl)vinyl)benzoic acid] | transcriptional activity significantly above the ethanol control levels |  | 

The remaining lines, values behind:

Compound | RAR agonist activity compared with 1 (human RARα) | EC50 (RXR [2]) [nM] | Ki (human RXRα [3]) [nM] | apparent RXR binding affinity greater than 1 (human RXRα [6]) [%] | increase in efficacy based on EC50 values (RXR [4]; versus 1, Table 1) [%] | RXR-mediated transcriptional activity (RXRE-luciferase) (human RXRα [1]) | RXR binding and homodimerization relative to 1 (luciferase output) (RXR [4]) | apoptotic activity (caspases 3 and 7) [5]
5-(1-(1,2,3,4-Tetrahydro-1,1,4,4,6-pentamethylnaphthalen-7-yl)vinyl)benzene-1,3-dioic Acid [Compound 14] |  |  |  |  |  | did not display significant RXR binding and activation |  | 
Cc1cc2c(cc1C(=O)c1ccc(C(=O)O)cc1F)C(C)(C)CCC2(C)C [Compound 19, 3-Fluoro-4-(1-(3,5,5,8,8-pentamethyl-5,6,7,8-tetrahydronaphthalen-2-yl)carbonyl)benzoic acid] |  |  |  |  |  |  | does not bind to RXR | almost no apoptotic activity
Cc1cc2c(cc1C(=O)c1ccc(C(=O)O)c(F)c1)C(C)(C)CCC2(C)C [Compound 21, 2-fluoro-4-(1-(3,5,5,8,8-pentamethyl-5,6,7,8-tetrahydronaphthalen-2-yl)carbonyl)benzoic acid] |  |  |  |  |  |  | a small degree of RXR binding and homodimerization relative to 1 | 

Reference: PMC2765782 (Journal of medicinal chemistry, 2009)
